Results taken from patent US8796280B2, “2,3-disubstituted pyrazinesulfonamides as CRTH2 inhibitors” (Merck Serono, S.A., priority 2005, dated 2014).

Legend:
CRTH2 [1] = biological target: T1, CRTH2 (Homo sapiens (Human), UniProt Q9Y5Y4); assay: Determination of Ki, equilibrium competition binding against [3H]PGD2; conditions: competition against [3H]PGD2; average of at least three independent dose response experiments; Ki calculated from IC50
Method: (§1) The inhibitory activity can be investigated by a radioligand binding assay (Sawyer et al., Br. J. Pharmocol 2002, 137, 1163-72). The radioligand binding assay was performed at room temperature in binding buffer (10 mM HEPES/KOH pH […], with protease inhibitor cocktail tablets), containing 1.5 nM [^3H]PGD2 (Amersham, 156 Cie/mmol), and 10 μg of hCRTH2 HEK293 (EBNA) cell membrane protein in a final volume of 100 μl in 96 well plates (Corning, USA). Non-specific binding was determined in the presence of 1 μM PGD2 (Cayman, USA). Competing pyrazine sulfonamides were diluted in dimethylsulphoxide so that the total volume of dimethylsulfoxide was kept constant at 1% dimethylsulphoxide (Me2SO). 10 μl of the pyrazine sulfonamides were added. Incubation (60 min at room temperature) was terminated by rapid filtration through 96 wells hydrophobic GF/C Unifilter plates (Whatman, USA). Filters were washed twice with 250 μl of Tris-HCl pH 7.4, 10 mM MnCl2, and residual radioligand bound to the filters was mixed to 100 μl of liquid scintillation cocktail (Optiphase Supermix, Perkin Elmer, USA) and binding activity was determined by counting residual radioligand using a 1450 Micro-beta scintillation counter (Wallac, UK).
Ki values were determined by equilibrium competition binding experiments against [^3H]PGD2. Ki values were calculated from the formula below and represent the average of at least three independent dose response experiments. The Ki values give the ligand concentrations necessary to inhibit 50% of the binding of 3[H]PGD2 to CRTH2. Ki=IC50/(1+[Concentration of Ligand]/Kd)]
All experiments were performed in 96 well plates, in a final volume of 100 μl according to the above described filtration assay. The concentration of membranes and 3[H]PGD2, as well as the positive and negative controls were identical to the conditions described above.

CRTH2 [2] = biological target: T1, CRTH2; assay: Radioligand binding assay ([3H]PGD2 displacement, hCRTH2 HEK293 (EBNA) cell membranes); conditions: 1.5 nM [3H]PGD2, 10 μg hCRTH2 HEK293 (EBNA) membrane protein, 60 min room temperature; test concentration not given
Source text: Human CRTH2 cDNA was amplified by PCR using a human urinary bladder cDNA library as a template and specific primers containing HindIII and BamHI restriction sites for cloning into the pCEP4 vector (Invitrogen). The vector construction is described in detail in Sawyer et al., Br. J. Pharmocol 2002, 137, 1163-72. The nucleotide sequence of the cloned cDNA was identical the previously reported hCRTH2 sequence (Nagata et al, 1999, J. Immunol. 162, 1278-1286).
HEK293 (EBNA) cells were transfected with the pCEP4-hCRTH2 construct using the calcium phosphate technique. Cells were maintained in culture at 37° C. in an atmosphere of 5% CO2 in Dulbecco's modified Eagle's F12 medium (Invitrogen), containing 10% heat-inactivated foetal calf serum (TerraCell International, Canada), 2 mM Glutamine, 100 units/ml of penicillin and 100 μg/ml streptomycin (Invitrogen). 48 hours after the transfection, cells were grown in presence of 300 μg/ml of Hygromycin B (Invitrogen) for 4 weeks and antibiotic resistant cells were amplified for cell membrane preparation.
Adherent HEK293 (EBNA) cells expressing hCRTH2 were cultured in 225 cm^2 cell culture flasks (Corning, USA) in 30 ml of medium. After two rinses of phosphate buffered saline (PBS), cells were harvested in 10 ml of PBS containing 1 mM EDTA, centrifuged at 500×g for 5 min at 4° C. and frozen at −80° C. The pellet was re-suspended in 50 mM Tris-HCl, pH 7.4, 2 mM EDTA, 250 mM Sucrose, containing protease inhibitor cocktail tablets, (Complete EDTA-free, Roche, Germany) and incubated 30 min at 4° C. Cells were disrupted by nitrogen cavitation (Parr Instruments, USA) at 4° C. (800 p.s.i. for 30 min), and centrifuged at 500×g for 10 min at 4° C. Pellet containing nuclei and cellular debris was discarded and supernatant was centrifuged 60 min at 4° C. at 45000×g. Membrane pellet was re-suspended in storage buffer (10 mM HEPES/KOH pH 7.4, 1 mM EDTA, 250 mM sucrose, protease inhibitor cocktail tablets) using Dounce homogenization and frozen in liquid nitrogen, and stored at −80° C.
as §1

T1 sequence (Q9Y5Y4 whole entry): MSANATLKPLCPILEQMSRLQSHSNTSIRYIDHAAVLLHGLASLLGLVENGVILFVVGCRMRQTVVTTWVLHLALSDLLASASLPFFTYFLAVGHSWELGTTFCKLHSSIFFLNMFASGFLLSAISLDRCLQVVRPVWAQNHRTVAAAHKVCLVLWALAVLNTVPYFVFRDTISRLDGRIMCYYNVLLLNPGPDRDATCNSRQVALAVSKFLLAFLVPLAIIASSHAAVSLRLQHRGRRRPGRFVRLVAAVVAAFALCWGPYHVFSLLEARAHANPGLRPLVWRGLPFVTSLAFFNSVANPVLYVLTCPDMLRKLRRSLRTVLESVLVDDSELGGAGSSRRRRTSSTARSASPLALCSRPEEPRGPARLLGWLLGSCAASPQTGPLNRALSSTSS

| SMILES | Ki (CRTH2 [1]) | Inhibition hCRTH2 [%] (CRTH2 [2]) |
| --- | --- | --- |
| CN(Cc1ccc(-c2nccnc2NS(=O)(=O)c2ccc(Cl)cc2)cc1)c1ccccc1 [Compound 15, 4-chloro-N-[3-(4-{[methyl(phenyl)amino]methyl}phenyl)pyrazin-2-yl]-benzenesulfonamide] | 5.38 µM | 51.0% |
| CCN(Cc1ccc(-c2nccnc2NS(=O)(=O)c2ccccc2Cl)cc1)c1ccccn1 [Compound 45, 2-Chloro-N-(3-{4-[(ethyl-pyridin-2-yl-amino)-methyl]-phenyl}-pyrazin-2-yl)-benzenesulfonamide] | 4.51 µM |  |
| Cc1ccc(S(=O)(=O)Nc2nccnc2-c2ccc(CN(C)c3ccc(OC(F)(F)F)cc3)cc2)cc1 [Compound 14, 4-methyl-N-{3-[4-({methyl[4-(trifluoromethoxy)phenyl]amino}-methyl)phenyl]pyrazin-2-yl}benzenesulfonamide] | 5.85 µM | 53.0% |
| Cc1cc2ccccc2n1Cc1ccc(-c2nccnc2NS(=O)(=O)c2ccccc2Cl)cc1 [Compound 43, 2-Chloro-N-{3-[4-(2-methyl-indol-1-ylmethyl)-phenyl]-pyrazin-2-yl}-benzenesulfonamide] | 4.11 µM |  |
| CN(Cc1ccc(-c2nccnc2NS(=O)(=O)c2cccc(Cl)c2)cc1)c1ccc(OC(F)(F)F)cc1 [Compound 11, 3-chloro-N-{3-[4-({methyl[4-(trifluoromethoxy)phenyl]amino}methyl)phenyl]pyrazin-2-yl}benzenesulfonamide] | 5.16 µM | 65.0% |
| O=S(=O)(Nc1nccnc1-c1ccc(Cn2ccc3cc(F)ccc32)cc1)c1ccccc1Cl [Compound 41, 2-Chloro-N-{3-[4-(5-fluoro-indol-1-ylmethyl)-phenyl]-pyrazin-2-yl}-benzenesulfonamide] | 3.9 µM |  |
| CN(Cc1ccc(-c2nccnc2NS(=O)(=O)c2ccc(C#N)cc2)cc1)c1ccc(OC(F)(F)F)cc1 [Compound 16, 4-cyano-N-{3-[4-({methyl[4-(trifluoromethoxy)phenyl]amino}-methyl)phenyl]pyrazin-2-yl}benzenesulfonamide] | 5.71 µM | 47.0% |
| CN(Cc1ccc(-c2nccnc2NS(=O)(=O)c2cccs2)cc1)c1ccc(Cl)cc1 [Compound 12, N-[3-(4-{[(4-chlorophenyl)(methyl)amino]methyl}phenyl)pyrazin-2-yl]-thiophene-2-sulfonamide] | 8.43 µM | 65.0% |
| O=S(=O)(Nc1nccnc1N1CCN(Cc2ccc3ccccc3n2)CC1)c1ccc(Oc2ccccc2)cc1 [Compound 13, 4-phenoxy-N-{3-[4-(quinolin-2-ylmethyl)piperazin-1-yl]pyrazin-2-yl}-benzenesulfonamide] | 4.03 µM | 64.5% |

The remaining lines, values ahead:

| Ki (CRTH2 [1]) | Inhibition hCRTH2 [%] (CRTH2 [2]) | SMILES |
| --- | --- | --- |
| 0.38 µM |  | CN(Cc1ccc(-c2nccnc2NS(=O)(=O)c2ccccc2C(F)(F)F)cc1)c1ccc(F)cc1 [Compound 17, N-[3-(4-{[(4-Fluoro-phenyl)-methyl-amino]-methyl}-phenyl)-pyrazin-2-yl]-2-trifluoromethyl-benzenesulfonamide] |
| 2.32 µM | 82.0% | O=S(=O)(Nc1nccnc1-c1ccc(COc2ccc3ccccc3c2)cc1)c1ccccc1Cl [Compound 5, 2-chloro-N-(3-{4-[(2-naphthyloxy)methyl]phenyl}pyrazin-2-yl)benzene-sulfonamide] |
| 1.57 µM | 84.5% | CN(Cc1ccc(-c2nccnc2NS(=O)(=O)c2ccccc2Cl)cc1)c1ccccc1 [Compound 4, 2-chloro-N-[3-(4-{[methyl(phenyl)amino]methyl}phenyl)pyrazin-2-yl]-benzenesulfonamide] |
| 2.98 µM | 72.5% | O=S(=O)(Nc1nccnc1-c1ccc(CNc2ccc3c(c2)OCO3)cc1)c1ccccc1C(F)(F)F [Compound 9, N-(3-{4-[(1,3-benzodioxol-5-ylamino)methyl]phenyl}pyrazin-2-yl)-2-(trifluoromethyl)benzenesulfonamide] |
| 2.59 µM | 80.0% | O=S(=O)(Nc1nccnc1-c1ccc(COc2ccc3c(c2)CCCC3)cc1)c1ccccc1Cl [Compound 7, 2-chloro-N-(3-{4-[(5,6,7,8-tetrahydronaphthalen-2-yloxy)methyl]-phenyl}-pyrazin-2-yl)benzenesulfonamide] |
| 1.42 µM | 79.0% | CCc1nc2ccccc2n1Cc1ccc(-c2nccnc2NS(=O)(=O)c2ccccc2Cl)cc1 [Compound 8, 2-chloro-N-(3-{4-[(2-ethyl-1H-benzimidazol-1-yl)methyl]phenyl}pyrazin-2-yl)benzenesulfonamide] |
| 3.9 µM |  | CN(Cc1ccc(-c2nccnc2NS(=O)(=O)c2ccccc2Cl)cc1)c1ccccc1F [Compound 42, 2-Chloro-N-[3-(4-{[(2-fluoro-phenyl)-methyl-amino]-methyl}-phenyl)-pyrazin-2-yl]-benzenesulfonamide] |
| 2.12 µM | 81.5% | O=S(=O)(Nc1nccnc1-c1ccc(Cn2ccc3ccccc32)cc1)c1ccccc1Cl [Compound 6, 2-chloro-N-{3-[4-(1H-indol-1-ylmethyl)phenyl]pyrazin-2-yl}benzene-sulfonamide] |
| 0.4 µM |  | CN(Cc1ccc(-c2nccnc2NS(=O)(=O)c2ccccc2C(F)(F)F)cc1)c1ccccc1 [Compound 18, N-(3-{4-[(Methyl-phenyl-amino)-methyl]-phenyl}-pyrazin-2-yl)-2-trifluoromethyl-benzenesulfonamide] |
| 1.4 µM | 72.0% | COc1cccc(COCc2ccc(-c3nccnc3NS(=O)(=O)c3ccccc3C(F)(F)F)cc2)c1 [Compound 10, N-[3-(4-{[(3-methoxybenzyl)oxy]methyl}phenyl)pyrazin-2-yl]-2-(trifluoromethyl)benzenesulfonamide] |
